Measurements published in patent EP1013272A1, “Manipulation of the activity of a nitric oxide radical production pathway for the treatment of diseases associated with the presence of oxygen free radicals” (Biomedical Primate Research Centre (BPRC), priority 1998, dated 2000).

What was measured:
splenocytes = experiment: Superoxide anion release by splenocytes after in vivo HgCl2; parameters: species or system rat
Description: (§1) Female BN and Lewis rats at 8 to 12 weeks of age were used in all experiments. Animals were obtained from Harlan CPB (Zeist, The Netherlands) and housed in the animal care facility of our institute and maintained on standard laboratory chow and water ad libitum. For some experiments, rats were injected twice with 1 mg HgCl2/kg body weight by the intraperitoneal route with an interval of 48 h. Four repeated i.p. injections with this dose of HgCl2 at 48 h intervals induce a TH2-biased autoimmune syndrome in BN but not Lewis rats that becomes clinically evident (massive proteinuria) approximately 13 days after the first injection with HgCl2 (16).
The pMØ monolayers were incubated for 20 h at 37°C in CM10 and subsequently washed (twice) with Hanks' balanced salt solution (HBSS) without phenol red. Thereafter, the cells were treated with PMA and assayed for ^·O2^- production by measuring the rate of SOD-inhibitable ferricytochrome C reduction (20, 21). To that purpose the macrophage monolayer was incubated for 1 h at 37°C with an 1.0 ml reaction mixture containing 100 µM ferricytochrome C in HBSS with or without PMA (100 ng/ml). […] Each test was run in duplicate and the absorption increase at 550 nm was measured using a Beckmann DU-5 spectrophotometer. ^·O2^- release by splenocytes was determined after Con A activation of 4 x 10^6 cells for 20 h. […]

rat spleen cell cultures = experiment: In vivo exposure to HgCl2, then ELISPOT of Con A-stimulated spleen cell cultures; details: for reduction in the ratio of IFN-γ pc/IL-4 pc: day 3 after first HgCl2 injection
Description: as §1
The aseptically removed spleen was gently crushed with the blunt end of a 5-ml syringe plunger and passaged through a fine mesh nylon screen. Erythrocytes were hemolysed by adding cold sterile water for 20 sec. to cell pellets followed by the addition of half the volume of 2.7% saline. The number of cells was determined by use of Türk's solution and cell viability by means of trypan blue exclusion. Cell suspensions in which the viability was less than 85% were excluded from the studies. Splenocytes were washed twice with CM5, adjusted to 4 x 10^6 cells/ml, transferred to a 24-well culture plate (1.0 ml/well) and stimulated with Con A (5 µg/ml) in the presence or absence of various supplements (as indicated in the text) for 40 h at 37°C in a humidified atmosphere containing 5% CO2. Thereafter, non-adherent cells were collected and subjected to ELISPOT analyses as described below.
The ELISPOT assay for detecting single cytokine secreting cells has been detailed previously (17). Briefly, the wells of PVC microplates were coated with monoclonal antibodies specific for rat IFN-γ or rat IL-4. After washing and postcoating, 100 µl suspensions of Con A-activated splenocytes were pipetted into the wells. The cells were allowed the produce cytokines for either 4 h (IFN-γ pc) or 16 h (IL-4 pc). Thereafter, cells were lysed for 10 minutes with ice-cold distilled water. Subsequently, the wells were thoroughly washed with PBS containing 0.05% Tween-20. Spots were detected by the sequential incubation of biotinylated rabbit anti-cytokine antibodies and goat anti-biotin antibodies conjugated to alkaline phosphatase (AP). The AP substrate 5-bromo-4-chloro-3-indolyl phosphate was used to produce blue zones ('spots') that visualised the positions of the individual spot-forming cells (SFC). SFC were enumerated by image analysis using a stereo microscope coupled to a colour video camera and Micro Image software from Olympus Optical Co. The frequency of spontaneously occurring SFC was always less than 1% of the mitogen-induced frequency.
Spleens were isolated from rats at 24 h after the second intraperitoneal injection with saline or HgCl2 (1 mg/kg b.w.). Spleen cells were stimulated with Con A (5 µg/ml) in the presence of 2 mM GSH. The experiments were performed at three independent occasions with similar results. At each occasion the ELISPOT analyses were performed in quadruplicate. One representative experiment is presented. Both reduction of IFN-γ pc and enhancement of IL-4 pc (BN splenocytes only) as a result of in vivo exposure to HgCl2 reached in all analyses statistical significance (p < 0.01).

[1] = BN, HgCl2 in vivo, no culture supplement, Con A + 2 mM GSH (Table 4)
[2] = BN, HgCl2 in vivo, no culture supplement, Con A + 2 mM GSH (Table 6)
[3] = BN, HgCl2 1 mg/kg b.w. i.p. twice, spleens 24 h after second injection, Con A 5 µg/ml + 2 mM GSH
[4] = Lewis, HgCl2 in vivo, no culture supplement, Con A + 2 mM GSH (Table 4)
[5] = Lewis, HgCl2 in vivo, no culture supplement, Con A + 2 mM GSH (Table 6)
[6] = Lewis, HgCl2 1 mg/kg b.w. i.p. twice, spleens 24 h after second injection, Con A 5 µg/ml + 2 mM GSH

In the case of `[Cl][Hg][Cl]` [HgCl2, mercuric chloride], the “^·O2^- levels” value (splenocytes) is reported as “below the detection limit”, the “reduction in the ratio of IFN-γ pc/IL-4 pc” value (rat spleen cell cultures; BN splenocyte cultures) is reported as ~6 fold and the “IFN-γ pc per 1x10^4 MNC” value (rat spleen cell cultures; [1]) is reported as 30 ± 8 per 1 x 10^4 MNC. The “IL-4 pc per 2x10^5 MNC” value (rat spleen cell cultures; [1]) was 88 ± 14 per 2 x 10^5 MNC, the “ratio IFN-γ pc/IL-4 pc” value (rat spleen cell cultures; [1]) was 6.8 and the “IFN-γ pc per 1x10^4 MNC” value (rat spleen cell cultures; [2]) was 35 ± 8 per 1x10^4 MNC. The “IL-4 pc per 2x10^5 MNC” value (rat spleen cell cultures; [2]) was 87 ± 14 per 2x10^5 MNC, the “ratio pc IFN-γ/IL-4” value (rat spleen cell cultures; [2]) was 8 and the “IFN-γ pc per 1x10^4 MNC” value (rat spleen cell cultures; [3]) was 34 ± 8 per 1 x 10^4 MNC. For the same compound, the “IL-4 pc per 2x10^5 MNC” value (rat spleen cell cultures; [3]) was 101 ± 12 per 2 x 10^5 MNC, the “ratio IFN-γ pc/IL-4 pc” value (rat spleen cell cultures; [3]) was 6.7 and the “reduction in the ratio of IFN-γ pc/IL-4 pc” value (rat spleen cell cultures; Lewis splenocyte cultures) was ~2 fold. For the same compound, the “IFN-γ pc per 1x10^4 MNC” value (rat spleen cell cultures; [4]) was 104 ± 1 per 1 x 10^4 MNC, the “IL-4 pc per 2x10^5 MNC” value (rat spleen cell cultures; [4]) was 11 ± 3 per 2 x 10^5 MNC and the “ratio IFN-γ pc/IL-4 pc” value (rat spleen cell cultures; [4]) was 189. The “IFN-γ pc per 1x10^4 MNC” value (rat spleen cell cultures; [5]) was 104 ± 11 per 1x10^4 MNC, the “IL-4 pc per 2x10^5 MNC” value (rat spleen cell cultures; [5]) was 13 ± 3 per 2x10^5 MNC and the “ratio pc IFN-γ/IL-4” value (rat spleen cell cultures; [5]) was 160. The “IFN-γ pc per 1x10^4 MNC” value (rat spleen cell cultures; [6]) was 103 ± 9 per 1 x 10^4 MNC, the “IL-4 pc per 2x10^5 MNC” value (rat spleen cell cultures; [6]) was 12 ± 7 per 2 x 10^5 MNC and the “ratio IFN-γ pc/IL-4 pc” value (rat spleen cell cultures; [6]) was 172.
